Results published in patent US10947252B2, “Inhibitors of KEAP1-Nrf2 protein-protein interaction” (Janssen Pharmaceutica NV, priority 2018, dated 2021).

What was measured:
[1] = target: Kelch domain of human KEAP1 (321-624 aa) (Homo sapiens (Human), UniProt Q14145); test: KEAP1 KELCH ThermoFluor binding assay; conditions: KEAP Kelch […], 1,8-ANS, pH 7.0, average of results obtained, read-out: Tf Kd;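 note: Ligand-induced melting temperature shift of E. coli-expressed KEAP1 Kelch protein, Kd estimated from concentration-response curves of ΔTm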
Chain of Kelch domain of human KEAP1 (321-624 aa) (Q14145 321-624): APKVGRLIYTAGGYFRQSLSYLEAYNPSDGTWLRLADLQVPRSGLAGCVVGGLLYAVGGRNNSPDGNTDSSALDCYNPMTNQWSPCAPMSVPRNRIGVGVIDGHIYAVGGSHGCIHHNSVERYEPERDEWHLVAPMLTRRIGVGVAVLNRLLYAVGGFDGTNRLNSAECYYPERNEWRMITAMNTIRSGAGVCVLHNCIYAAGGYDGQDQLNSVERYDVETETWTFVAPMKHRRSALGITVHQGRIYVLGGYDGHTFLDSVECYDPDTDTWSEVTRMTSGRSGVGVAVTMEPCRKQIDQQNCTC

[2] = system: Glo-Response ARE-luc2P HEK293 cell line; test: ARE luciferase reporter cell-based assay; conditions: average of results obtained;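 note: luciferase signal tracks Nrf2 activation of the ARE once compounds disrupt KEAP1-Nrf2 binding, read with One-Glo reagent, DMSO serving as low control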

| Compound | Kd [1] | EC50 ([2]; Homo sapiens, HEK293, 24 h) | EC50 ([2]; 24 hours) |
| --- | --- | --- | --- |
| Cc1ccc(C(CC(=O)O)c2ccn3c(C(F)(F)F)nnc3c2C)nc1CN1CC2(CC2)Oc2ncc(F)cc2S1(=O)=O (stereo not drawn) [Example 508, 3-(6-((8′-Fluoro-1′,1′-dioxidospiro[cyclopropane-1,4′-pyrido[2,3-b][1,4,5]oxathiazepin]-2′(3′H)-yl)methyl)-5-methylpyridin-2-yl)-3-(8-methyl-3-(trifluoromethyl)-[1,2,4]triazolo[4,3-a]pyridin-7-yl)propanoic Acid] | < 1 nM | 92.7 nM | – |
| Cc1ccc(C(CC(=O)O)c2ccn3c(C(F)(F)F)nnc3c2C)nc1CN1CC2CCCCN2c2ncc(Cl)cc2S1(=O)=O (stereo not drawn) [Example 518, 3-(6-((3-Chloro-5,5-dioxido-7,7a,8,9,10,11-hexahydro-6H-dipyrido[2,1-d:2′,3′-f][1,2,5]thiadiazepin-6-yl)methyl)-5-methylpyridin-2-yl)-3-(8-methyl-3-(trifluoromethyl)-[1,2,4]triazolo[4,3-a]pyridin-7-yl)propanoic Acid] | < 1 nM | 3.48 nM | – |
| Cc1ccc(C(CC(=O)O)c2ccn3c(C(F)F)nnc3c2C)cc1CN1CC2(CC2)Oc2ncc(F)cc2S1(=O)=O (stereo not drawn) [Example 526, 3-(3-(Difluoromethyl)-8-methyl-[1,2,4]triazolo[4,3-a]pyridin-7-yl)-3-(3-((8′-fluoro-1′,1′-dioxidospiro[cyclopropane-1,4′-pyrido[2,3-b][1,4,5]oxathiazepin]-2′(3′H)-yl)methyl)-4-methylphenyl)propanoic Acid] | < 1 nM | 60.1 nM | – |
| Cc1ccc(C(CC(=O)O)c2ccn3c(C(F)F)nnc3c2C)cc1CN1CC2(CC2)Oc2ncc(Cl)cc2S1(=O)=O (stereo not drawn) [Example 529, 3-(3-((8′-Chloro-1′,1′-dioxidospiro[cyclopropane-1,4′-pyrido[2,3-b][1,4,5]oxathiazepin]-2′(3′H)-yl)methyl)-4-methylphenyl)-3-(3-(difluoromethyl)-8-methyl-[1,2,4]triazolo[4,3-a]pyridin-7-yl)propanoic Acid] | < 1 nM | 29.1 nM | – |
| Cc1ccc(C(CC(=O)O)c2ccn3c(C(F)F)nnc3c2C)cc1CN1CC2(CC2)Oc2ncc(C(N)=O)cc2S1(=O)=O (stereo not drawn) [Example 551, 3-(3-((8′-Carbamoyl-1′,1′-dioxidospiro[cyclopropane-1,4′-pyrido[2,3-b][1,4,5]oxathiazepin]-2′(3′H)-yl)methyl)-4-methylphenyl)-3-(3-(difluoromethyl)-8-methyl-[1,2,4]triazolo[4,3-a]pyridin-7-yl)propanoic Acid] | 453 nM | > 20000 nM | – |
| (*S)-3-(3-((7′-(3-((2-(2-aminoethoxy)ethyl)amino)-3-oxopropyl)-1′,1′-dioxido-2,3,5,6-tetrahydrospiro[pyran-4,4′-pyrido[2,3-b][1,4,5]oxathiazepin]-2′(3′H)-yl)methyl)-4-methylphenyl)-2,2-dimethyl-3-(8-methyl-3-(trifluoromethyl)-[1,2,4]triazolo[4,3-a]pyridin-7-yl)propanoic Acid [Example 345] | > 10000 nM | – | > 20 nM |

Further lines, with some results ahead:

| Kd [1] | Compound | EC50 ([2]; Homo sapiens, HEK293, 24 h) | EC50 ([2]; 24 hours) |
| --- | --- | --- | --- |
| < 1 nM | Cc1ccc(C(CC(=O)O)c2ccn3c(C(F)F)nnc3c2C)cc1CN1CC2(CCOCC2)Oc2ccc(F)cc2S1(=O)=O (stereo not drawn) [Example 523, 3-(3-(Difluoromethyl)-8-methyl-[1,2,4]triazolo[4,3-a]pyridin-7-yl)-3-(3-((8-fluoro-1,1-dioxido-2′,3′,5′,6′-tetrahydrospiro[benzo[b][1,4,5]oxathiazepine-4,4′-pyran]-2(3H)-yl)methyl)-4-methylphenyl)propanoic Acid] | 23.9 nM | – |
| < 1 nM | Cc1ccc(C(CC(=O)O)c2ccn3c(C(F)F)nnc3c2C)cc1CN1CC2(CCOCC2)Oc2ncc(F)cc2S1(=O)=O (stereo not drawn) [Example 532, 3-(3-(Difluoromethyl)-8-methyl-[1,2,4]triazolo[4,3-a]pyridin-7-yl)-3-(3-((8′-fluoro-1′,1′-dioxido-2,3,5,6-tetrahydrospiro[pyran-4,4′-pyrido[2,3-b][1,4,5]oxathiazepin]-2′(3′H)-yl)methyl)-4-methylphenyl)propanoic Acid] | 41.7 nM | – |
| < 1 nM | Cc1cnc2c(c1)S(=O)(=O)N(Cc1cc(C(CC(=O)O)c3ccn4c(C(F)F)nnc4c3C)ccc1C)CC1(CC1)O2 (stereo not drawn) [Example 535, 3-(3-(Difluoromethyl)-8-methyl-[1,2,4]triazolo[4,3-a]pyridin-7-yl)-3-(4-methyl-3-((8′-methyl-1′,1′-dioxidospiro[cyclopropane-1,4′-pyrido[2,3-b][1,4,5]oxathiazepin]-2′(3′H)-yl)methyl)phenyl)propanoic Acid] | 146 nM | – |
